Test results reported in ChEMBL document CHEMBL1134020, “3,4-Dihydro-1-isoquinolinamines: a novel class of nitric oxide synthase inhibitors with a range of isoform selectivity and potency” (Bioorg Med Chem Lett, 2001).
“And” between values parts separate entries of the source, which are not always exact repeats. Equal entries are not always repeated.

Columns and labels:
[1] = target: T1, Nitric oxide synthase, inducible (Homo sapiens, UniProt P35228); experiment: Ability to inhibit conversion of [3H]L-Arg to [3H]L-citrulline catalyzed by inducible NOS (i NOS) from human DLD-1 cells; assay type: functional, cell-based
Nitric oxide synthase 3 = target: T2, Nitric oxide synthase 3 (Homo sapiens, UniProt P29474); experiment: Ability to inhibit conversion of [3H]L-Arg to [3H]L-citrulline catalyzed by endothelial NOS (e NOS) from HUVEC cells; assay type: functional, cell-based
T2 sequence (P29474 whole entry): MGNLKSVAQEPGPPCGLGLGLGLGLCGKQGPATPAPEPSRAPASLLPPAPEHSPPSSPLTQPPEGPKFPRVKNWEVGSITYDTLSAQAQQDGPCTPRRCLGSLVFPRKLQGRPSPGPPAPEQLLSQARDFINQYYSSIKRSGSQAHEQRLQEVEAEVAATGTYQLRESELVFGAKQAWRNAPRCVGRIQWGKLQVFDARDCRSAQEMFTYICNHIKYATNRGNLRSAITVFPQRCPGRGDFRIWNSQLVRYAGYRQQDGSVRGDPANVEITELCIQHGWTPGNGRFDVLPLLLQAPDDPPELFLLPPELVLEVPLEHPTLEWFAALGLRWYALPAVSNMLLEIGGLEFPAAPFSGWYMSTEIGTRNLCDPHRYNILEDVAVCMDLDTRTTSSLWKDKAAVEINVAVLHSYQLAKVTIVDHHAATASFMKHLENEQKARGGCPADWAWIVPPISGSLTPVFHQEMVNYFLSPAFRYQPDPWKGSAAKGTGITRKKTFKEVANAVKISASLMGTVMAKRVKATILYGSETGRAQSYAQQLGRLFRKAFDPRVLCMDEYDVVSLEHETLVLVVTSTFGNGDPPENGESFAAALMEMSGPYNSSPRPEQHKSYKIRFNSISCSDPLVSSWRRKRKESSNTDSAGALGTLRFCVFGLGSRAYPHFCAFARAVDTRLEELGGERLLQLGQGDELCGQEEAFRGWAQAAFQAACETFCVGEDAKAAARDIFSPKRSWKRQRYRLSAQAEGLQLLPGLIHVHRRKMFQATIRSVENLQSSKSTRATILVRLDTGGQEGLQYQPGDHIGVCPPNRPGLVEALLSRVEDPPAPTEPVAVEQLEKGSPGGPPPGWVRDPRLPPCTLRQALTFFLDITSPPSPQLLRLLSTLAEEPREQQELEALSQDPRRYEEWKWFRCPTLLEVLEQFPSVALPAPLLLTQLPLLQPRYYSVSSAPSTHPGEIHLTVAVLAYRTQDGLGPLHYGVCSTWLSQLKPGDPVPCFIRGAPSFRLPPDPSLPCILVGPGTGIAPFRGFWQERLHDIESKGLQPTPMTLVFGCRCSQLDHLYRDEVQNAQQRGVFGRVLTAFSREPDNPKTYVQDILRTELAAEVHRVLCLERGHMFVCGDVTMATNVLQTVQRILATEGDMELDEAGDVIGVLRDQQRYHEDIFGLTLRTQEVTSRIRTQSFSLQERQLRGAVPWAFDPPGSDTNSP

Nitric oxide synthase 1 = Nitric oxide synthase 1 (Rattus norvegicus, UniProt P29476); experiment: Inhibition of conversion of [3H]L-Arg to [3H]L-citrulline catalyzed by neuronal NOS (n NOS) from rat cerebellum; assay type: functional, tissue-based
[2] = target: T1, Nitric oxide synthase, inducible; experiment: Inhibitory concentration against nitric oxide synthesis in intact DLD-1 cells; assay type: functional, cell-based
[3] = target: T3, Nitric oxide synthase 3 (Homo sapiens) (UniProt P29474); experiment: Ability (at 100 catalyzed by endothelial NOS (e NOS) from HUVEC cells; assay type: functional, cell-based; settings: concentration not given here
T3 sequence (whole entry): T2 sequence (P29474 whole entry)

Rattus norvegicus = organism: Rattus norvegicus; experiment: Ability (at 100 catalyzed by neuronal NOS (n NOS) from rat cerebellum; assay type: functional
DLD-1 [4] = experiment: (§1) Ability (at 100 catalyzed by inducible NOS (i NOS) from human DLD-1 cells; assay type: functional, cell-based
DLD-1 [5] = experiment: as §1; assay type: functional

Sequence of Nitric oxide synthase 1 (P29476 whole entry): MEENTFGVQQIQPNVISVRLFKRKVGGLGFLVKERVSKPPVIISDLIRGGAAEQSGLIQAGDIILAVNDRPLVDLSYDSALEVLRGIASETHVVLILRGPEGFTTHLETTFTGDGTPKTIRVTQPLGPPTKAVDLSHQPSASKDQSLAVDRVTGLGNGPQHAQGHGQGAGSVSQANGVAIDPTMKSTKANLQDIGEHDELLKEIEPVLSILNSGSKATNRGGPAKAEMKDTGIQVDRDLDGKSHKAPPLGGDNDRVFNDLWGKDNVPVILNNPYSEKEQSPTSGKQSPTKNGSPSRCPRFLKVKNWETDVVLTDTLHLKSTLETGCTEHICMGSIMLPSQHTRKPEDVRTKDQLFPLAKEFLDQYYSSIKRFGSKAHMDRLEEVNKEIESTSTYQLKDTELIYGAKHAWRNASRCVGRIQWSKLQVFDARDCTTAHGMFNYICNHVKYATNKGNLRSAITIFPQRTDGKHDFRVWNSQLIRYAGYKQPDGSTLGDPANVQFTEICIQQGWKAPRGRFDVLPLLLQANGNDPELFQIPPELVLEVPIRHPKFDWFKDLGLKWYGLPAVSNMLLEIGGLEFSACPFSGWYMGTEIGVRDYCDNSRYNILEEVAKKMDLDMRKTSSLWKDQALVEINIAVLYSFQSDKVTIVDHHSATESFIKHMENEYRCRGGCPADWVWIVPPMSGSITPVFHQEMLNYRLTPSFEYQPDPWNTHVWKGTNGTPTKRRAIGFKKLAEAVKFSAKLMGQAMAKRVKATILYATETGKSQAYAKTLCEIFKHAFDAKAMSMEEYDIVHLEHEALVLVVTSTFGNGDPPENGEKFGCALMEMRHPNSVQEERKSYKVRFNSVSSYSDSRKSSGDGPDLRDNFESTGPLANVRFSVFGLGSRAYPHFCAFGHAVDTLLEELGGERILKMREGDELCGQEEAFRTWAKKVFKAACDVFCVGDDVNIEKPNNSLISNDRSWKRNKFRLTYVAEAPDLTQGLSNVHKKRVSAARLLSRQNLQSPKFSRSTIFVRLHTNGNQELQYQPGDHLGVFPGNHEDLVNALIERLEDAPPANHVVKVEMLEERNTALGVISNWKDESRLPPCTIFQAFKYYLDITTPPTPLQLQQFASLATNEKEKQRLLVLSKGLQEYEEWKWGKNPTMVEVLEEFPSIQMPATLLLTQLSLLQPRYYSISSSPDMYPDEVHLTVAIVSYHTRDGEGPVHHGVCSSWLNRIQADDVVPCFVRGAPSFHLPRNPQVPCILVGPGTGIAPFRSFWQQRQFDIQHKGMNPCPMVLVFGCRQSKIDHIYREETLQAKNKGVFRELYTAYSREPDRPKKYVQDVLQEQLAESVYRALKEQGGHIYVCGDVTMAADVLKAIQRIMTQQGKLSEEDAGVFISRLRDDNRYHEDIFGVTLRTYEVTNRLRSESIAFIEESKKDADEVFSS
T1 sequence (P35228 whole entry): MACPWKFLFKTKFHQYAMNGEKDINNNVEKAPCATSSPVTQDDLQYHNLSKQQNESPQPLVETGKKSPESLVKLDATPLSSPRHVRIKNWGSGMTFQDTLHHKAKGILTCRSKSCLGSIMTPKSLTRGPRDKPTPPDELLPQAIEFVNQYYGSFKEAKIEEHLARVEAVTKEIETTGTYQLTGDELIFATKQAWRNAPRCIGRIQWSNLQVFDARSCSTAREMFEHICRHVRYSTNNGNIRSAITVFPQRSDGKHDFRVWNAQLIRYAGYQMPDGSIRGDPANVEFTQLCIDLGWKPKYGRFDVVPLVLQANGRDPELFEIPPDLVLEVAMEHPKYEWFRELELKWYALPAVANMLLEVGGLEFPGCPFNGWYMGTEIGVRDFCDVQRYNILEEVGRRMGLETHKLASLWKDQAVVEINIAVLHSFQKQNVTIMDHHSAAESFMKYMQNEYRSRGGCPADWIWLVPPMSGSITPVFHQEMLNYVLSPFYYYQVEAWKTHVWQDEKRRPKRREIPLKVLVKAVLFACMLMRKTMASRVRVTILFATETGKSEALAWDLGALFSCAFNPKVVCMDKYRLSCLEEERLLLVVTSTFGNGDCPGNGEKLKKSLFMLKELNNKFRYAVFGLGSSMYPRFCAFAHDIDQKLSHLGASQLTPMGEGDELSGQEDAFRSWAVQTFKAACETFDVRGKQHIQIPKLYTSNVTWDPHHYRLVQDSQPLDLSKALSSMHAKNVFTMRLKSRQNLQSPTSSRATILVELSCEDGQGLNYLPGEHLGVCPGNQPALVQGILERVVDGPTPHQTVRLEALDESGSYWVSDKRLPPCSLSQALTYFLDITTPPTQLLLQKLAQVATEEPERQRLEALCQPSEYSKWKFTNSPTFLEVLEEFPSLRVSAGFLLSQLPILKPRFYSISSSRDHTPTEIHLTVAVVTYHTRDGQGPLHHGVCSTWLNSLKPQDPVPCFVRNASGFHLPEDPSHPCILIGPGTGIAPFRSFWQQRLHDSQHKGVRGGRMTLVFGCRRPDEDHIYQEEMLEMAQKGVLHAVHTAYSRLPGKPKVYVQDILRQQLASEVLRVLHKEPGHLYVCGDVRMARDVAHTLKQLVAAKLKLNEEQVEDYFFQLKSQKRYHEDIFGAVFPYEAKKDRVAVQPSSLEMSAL

Compound: C#CC1Cc2ccccc2C(N)=N1 (centres undefined)
- IC50 [1]: 2.7 µM
- IC50 (Nitric oxide synthase 3): 0.9 µM
- IC50 (Nitric oxide synthase 1): 0.4 µM

Compound: NC1=NC(c2ccccc2F)Cc2ccccc21 (centres undefined)
- IC50 [1]: 33 µM
- IC50 (Nitric oxide synthase 3): 44 µM
- IC50 (Nitric oxide synthase 1): 13 µM

Compound: NC1=NC(c2ccc(F)cc2)Cc2cccc(F)c21 (centres undefined)
- IC50 [2]: 350 µM
- inhibition [3]: < 25%
- IC50 (Nitric oxide synthase 1): 16 µM

Compound: NC1=NC(c2ccccc2)Cc2cccc(Cl)c21 (centres undefined)
- IC50 (Nitric oxide synthase 3): 6 µM
- inhibition [3]: < 25%
- Inhibition (Rattus norvegicus): 25%

Compound: CC1Cc2ccccc2C(N)=N1 (centres undefined)
- IC50 [1]: 18 µM
- IC50 (Nitric oxide synthase 3): 4 µM
- IC50 (Nitric oxide synthase 1): 3 µM

Compound: NC1=NC(c2cccs2)Cc2ccccc21 (centres undefined)
- IC50 [1]: 2.7 µM
- IC50 (Nitric oxide synthase 3): 8 µM
- IC50 (Nitric oxide synthase 1): 2 µM

Compound: NC1=NC(c2cccc(F)c2)Cc2ccccc21 (centres undefined)
- IC50 (Nitric oxide synthase 3): 9 µM
- inhibition [3]: < 25%
- IC50 (Nitric oxide synthase 1): 10 µM

Compound: NC1=NCCCc2ccccc21
- Inhibition (DLD-1 [4]): < 25%
- IC50 (Nitric oxide synthase 3): 12 µM
- IC50 (Nitric oxide synthase 1): 2 µM

Compound: NC1=NC(c2ccc(F)cc2)Cc2ccc(F)cc21 (centres undefined)
- Inhibition (DLD-1 [5]): 43%
- IC50 (Nitric oxide synthase 3): 55 µM
- IC50 (Nitric oxide synthase 1): 44 µM

Compound: NC1=NC(c2ccc(Cl)cc2)Cc2ccccc21 (centres undefined)
- Inhibition (DLD-1 [5]): 46%
- IC50 (Nitric oxide synthase 3): 86 µM
- IC50 (Nitric oxide synthase 1): 30 µM

Compound: NC1=NC(c2ccc(F)cc2)Cc2cc(F)ccc21 (centres undefined)
- IC50 [1]: 9 µM
- IC50 (Nitric oxide synthase 3): 100 µM
- IC50 (Nitric oxide synthase 1): 20 µM

Compound: NC1=NC(c2ccc(F)cc2)Cc2c(F)cccc21 (centres undefined)
- IC50 [1]: 4.7 µM
- IC50 (Nitric oxide synthase 3): 44 µM
- IC50 (Nitric oxide synthase 1): 5 µM

Compound: COC(=O)[C@@H](N)CCCNC(=N)N[N+](=O)[O-] [L-NAME]
- IC50 [2]: 300 µM
- IC50 [1]: 14 µM
- IC50 (Nitric oxide synthase 3): 2.7 µM
- IC50 (Nitric oxide synthase 1): 0.15 µM

Compound: NC1=NC(c2ccc(F)cc2)Cc2ccccc21 (centres undefined)
- IC50 [1]: 5.5 µM
- IC50 (Nitric oxide synthase 3): 40 µM
- IC50 (Nitric oxide synthase 1): 9 µM

Compound: NC1=NC(c2ccco2)Cc2ccccc21 (centres undefined)
- IC50 [1]: 1.2 µM
- IC50 (Nitric oxide synthase 3): 5 µM
- IC50 (Nitric oxide synthase 1): 0.9 µM

Compound: NC1=NC(C2CC2)Cc2ccccc21 (centres undefined)
- IC50 [2]: 300 µM
- IC50 [1]: 1.3 µM
- IC50 (Nitric oxide synthase 3): 3.6 µM
- IC50 (Nitric oxide synthase 1): 1.5 µM

Compound: NC1=NC(c2nccs2)Cc2ccccc21 (centres undefined)
- IC50 [2]: 880 µM
- IC50 [1]: 4.2 µM
- IC50 (Nitric oxide synthase 3): 19 µM
- IC50 (Nitric oxide synthase 1): 8 µM

Compound: CC(=N)NCCCC[C@H](N)C(=O)O [L-NIL]
- IC50 [2]: 470 µM
- IC50 [1]: 0.13 µM
- IC50 (Nitric oxide synthase 3): 2.4 µM
- IC50 (Nitric oxide synthase 1): 1.6 µM

Compound: NC1=NC(c2ccc(F)cc2)Cc2cccc(Cl)c21 (centres undefined)
- IC50 [2]: 350 µM
- IC50 (Nitric oxide synthase 3): 5 µM
- inhibition [3]: 39%
- IC50 (Nitric oxide synthase 1): 100 µM

Compound: NC1=NC(c2ccccc2)Cc2ccccc21 (centres undefined)
- IC50 (Nitric oxide synthase 3): 9 µM
- inhibition [3]: < 25%
- IC50 (Nitric oxide synthase 1): 12 µM

Compound: NC1=NC(c2ncc[nH]2)Cc2ccccc21 (centres undefined)
- inhibition [3]: 47% and < 25%
- Inhibition (Rattus norvegicus): <25%

Compound: NC1=NCCc2ccccc21
- IC50 [1]: 32 µM
- IC50 (Nitric oxide synthase 3): 2 µM
- IC50 (Nitric oxide synthase 1): 0.4 µM

Compound: N=C(N)NN [PIMAGEDINE]
- IC50 [1]: 4.5 µM
- IC50 (Nitric oxide synthase 3): 72 µM
- IC50 (Nitric oxide synthase 1): 6 µM

Compound: CC1(C)Cc2ccccc2C(N)=N1
- inhibition [3]: < 25%
- IC50 (Nitric oxide synthase 1): 10 µM

Compound: NC1=NC(c2ccccc2)Cc2cccc(F)c21 (centres undefined)
- IC50 [2]: 130 µM
- IC50 [1]: 0.55 µM
- IC50 (Nitric oxide synthase 3): 80 µM
- IC50 (Nitric oxide synthase 1): 2 µM
